Reference: US20230226005A1, “Methods of Treating, Ameliorating, Shortening Duration, and/or Reversing Symptoms and/or Complications of a Coronavirus Infection” (Yale University, priority 2020, published 2023)

Experiments:
COVID-19 infection = assay: Phase IIa study: COVID-19 PRO daily self-score, symptom severity score (items 1-33, 0-132); format: in vivo
COVID-19 = conditions: hospitalized COVID-19 patients; 200 mg po three times daily for 5 days; cited from earlier work

CN(C)C(=O)COC(=O)Cc1ccc(OC(=O)c2ccc(NC(=N)N)cc2)cc1 [camostat, 4-[[4-[(Aminoiminomethyl)amino]benzoyl]oxy]benzeneacetic acid 2-(dimethylamino)-2-oxoethyl ester]
symptom severity score, ANCOVA linear mixed model, B − A (placebo − camostat) (COVID-19 infection; day 3): −1.34 (3.01) | symptom severity score, Negative binomial model, A: Camostat arm (COVID-19 infection; day 3): 23.35 (3.02) | symptom severity score, Negative binomial model, B − A (COVID-19 infection; day 3): 0.96 (0.13) | COVID-19 symptom severity score raw Mean (COVID-19 infection; day 4): 20.8 | symptom score, Fitzmaurice mixed effects model, A: Camostat arm (COVID-19 infection; day 4): 19.69 (2.6) | symptom score, Fitzmaurice mixed effects model, B − A (placebo − camostat) (COVID-19 infection; day 4): 0.89 (2.8) | symptom severity score, ANCOVA linear mixed model, A: Camostat arm (COVID-19 infection; day 4): −11.29 (2.13) | symptom severity score, ANCOVA linear mixed model, B − A (placebo − camostat) (COVID-19 infection; day 4): −0.1 (3.02) | symptom severity score, Negative binomial model, A: Camostat arm (COVID-19 infection; day 4): 20.17 (2.89) | symptom severity score, Negative binomial model, B − A (COVID-19 infection; day 4): 1 (0.17) | COVID-19 symptom severity score raw Mean (COVID-19 infection; day 5): 17.7 | symptom score, Fitzmaurice mixed effects model, A: Camostat arm (COVID-19 infection; day 5): 16.57 (2.6) | symptom score, Fitzmaurice mixed effects model, B − A (placebo − camostat) (COVID-19 infection; day 5): 5.84 (2.79) | symptom severity score, ANCOVA linear mixed model, A: Camostat arm (COVID-19 infection; day 5): −14.41 (2.13) | symptom severity score, ANCOVA linear mixed model, B − A (placebo − camostat) (COVID-19 infection; day 5): 4.84 (3.01) | symptom severity score, Negative binomial model, A: Camostat arm (COVID-19 infection; day 5): 17.14 (2.63) | symptom severity score, Negative binomial model, B − A (COVID-19 infection; day 5): 1.27 (0.24) | COVID-19 symptom severity score raw Mean (COVID-19 infection; day 6): 14.1 | symptom score, Fitzmaurice mixed effects model, A: Camostat arm (COVID-19 infection; day 6): 12.53 (2.62) | symptom score, Fitzmaurice mixed effects model, B − A (placebo − camostat) (COVID-19 infection; day 6): 6.9 (2.81) | symptom severity score, ANCOVA linear mixed model, A: Camostat arm (COVID-19 infection; day 6): −18.43 (2.15) | symptom severity score, ANCOVA linear mixed model, B − A (placebo − camostat) (COVID-19 infection; day 6): 5.89 (3.02) | symptom severity score, Negative binomial model, A: Camostat arm (COVID-19 infection; day 6): 13.4 (2.45) | symptom severity score, Negative binomial model, B − A (COVID-19 infection; day 6): 1.38 (0.29) | COVID-19 symptom severity score raw Mean (COVID-19 infection; day 7): 12.6 | symptom score, Fitzmaurice mixed effects model, A: Camostat arm (COVID-19 infection; day 7): 11.37 (2.67) | symptom score, Fitzmaurice mixed effects model, B − A (placebo − camostat) (COVID-19 infection; day 7): 4.68 (2.84) | symptom severity score, ANCOVA linear mixed model, A: Camostat arm (COVID-19 infection; day 7): −19.64 (2.2) | symptom severity score, ANCOVA linear mixed model, B − A (placebo − camostat) (COVID-19 infection; day 7): 3.71 (3.05) | symptom severity score, Negative binomial model, A: Camostat arm (COVID-19 infection; day 7): 12.09 (2.79) | symptom severity score, Negative binomial model, B − A (COVID-19 infection; day 7): 1.23 (0.3) | COVID-19 symptom severity score raw Mean (COVID-19 infection; day 8): 11.4 | symptom score, Fitzmaurice mixed effects model, A: Camostat arm (COVID-19 infection; day 8): 9.57 (2.67) | symptom score, Fitzmaurice mixed effects model, B − A (placebo − camostat) (COVID-19 infection; day 8): 5.4 (2.85) | symptom severity score, ANCOVA linear mixed model, A: Camostat arm (COVID-19 infection; day 8): −21.42 (2.2) | symptom severity score, ANCOVA linear mixed model, B − A (placebo − camostat) (COVID-19 infection; day 8): 4.43 (3.06) | symptom severity score, Negative binomial model, A: Camostat arm (COVID-19 infection; day 8): 10.6 (2.64) | symptom severity score, Negative binomial model, B − A (COVID-19 infection; day 8): 1.28 (0.34) | COVID-19 symptom severity score raw Mean (COVID-19 infection; day 9): 10.7 | symptom score, Fitzmaurice mixed effects model, A: Camostat arm (COVID-19 infection; day 9): 8.86 (2.67) | symptom score, Fitzmaurice mixed effects model, B − A (placebo − camostat) (COVID-19 infection; day 9): 5.13 (2.85) | symptom severity score, ANCOVA linear mixed model, A: Camostat arm (COVID-19 infection; day 9): −22.13 (2.2) | symptom severity score, ANCOVA linear mixed model, B − A (placebo − camostat) (COVID-19 infection; day 9): 4.16 (3.06) | symptom severity score, Negative binomial model, A: Camostat arm (COVID-19 infection; day 9): 9.94 (2.43) | symptom severity score, Negative binomial model, B − A (COVID-19 infection; day 9): 1.25 (0.33) | COVID-19 symptom severity score raw Mean (COVID-19 infection; day 10): 10 | symptom score, Fitzmaurice mixed effects model, A: Camostat arm (COVID-19 infection; day 10): 8.24 (2.67) | symptom score, Fitzmaurice mixed effects model, B − A (placebo − camostat) (COVID-19 infection; day 10): 4.67 (2.85) | symptom severity score, ANCOVA linear mixed model, A: Camostat arm (COVID-19 infection; day 10): −22.75 (2.2) | symptom severity score, ANCOVA linear mixed model, B − A (placebo − camostat) (COVID-19 infection; day 10): 3.7 (3.06) | symptom severity score, Negative binomial model, A: Camostat arm (COVID-19 infection; day 10): 9.36 (2.56) | symptom severity score, Negative binomial model, B − A (COVID-19 infection; day 10): 1.2 (0.36) | COVID-19 symptom severity score raw Mean (COVID-19 infection; day 11): 9.3 | symptom score, Fitzmaurice mixed effects model, A: Camostat arm (COVID-19 infection; day 11): 7.25 (2.69) | symptom score, Fitzmaurice mixed effects model, B − A (placebo − camostat) (COVID-19 infection; day 11): 4.44 (2.87) | symptom severity score, ANCOVA linear mixed model, A: Camostat arm (COVID-19 infection; day 11): −23.77 (2.22) | symptom severity score, ANCOVA linear mixed model, B − A (placebo − camostat) (COVID-19 infection; day 11): 3.5 (3.08) | symptom severity score, Negative binomial model, A: Camostat arm (COVID-19 infection; day 11): 8.49 (2.3) | symptom severity score, Negative binomial model, B − A (COVID-19 infection; day 11): 1.17 (0.35) | COVID-19 symptom severity score raw Mean (COVID-19 infection; day 12): 9.6 | symptom score, Fitzmaurice mixed effects model, A: Camostat arm (COVID-19 infection; day 12): 8.18 (2.69) | symptom score, Fitzmaurice mixed effects model, B − A (placebo − camostat) (COVID-19 infection; day 12): 2.39 (2.88) | symptom severity score, ANCOVA linear mixed model, A: Camostat arm (COVID-19 infection; day 12): −22.87 (2.22) | symptom severity score, ANCOVA linear mixed model, B − A (placebo − camostat) (COVID-19 infection; day 12): 1.46 (3.09) | symptom severity score, Negative binomial model, A: Camostat arm (COVID-19 infection; day 12): 9.06 (2.18) | symptom severity score, Negative binomial model, B − A (COVID-19 infection; day 12): 0.94 (0.25) | COVID-19 symptom severity score raw Mean (COVID-19 infection; day 13): 9.7 | symptom score, Fitzmaurice mixed effects model, A: Camostat arm (COVID-19 infection; day 13): 7.87 (2.75) | symptom score, Fitzmaurice mixed effects model, B − A (placebo − camostat) (COVID-19 infection; day 13): 2.11 (2.95) | symptom severity score, ANCOVA linear mixed model, A: Camostat arm (COVID-19 infection; day 13): −23.17 (2.29) | symptom severity score, ANCOVA linear mixed model, B − A (placebo − camostat) (COVID-19 infection; day 13): 1.17 (3.15) | symptom severity score, Negative binomial model, A: Camostat arm (COVID-19 infection; day 13): 8.9 (2.27) | symptom severity score, Negative binomial model, B − A (COVID-19 infection; day 13): 0.88 (0.26) | COVID-19 symptom severity score raw Mean (COVID-19 infection; day 14): 8.2 | symptom score, Fitzmaurice mixed effects model, A: Camostat arm (COVID-19 infection; day 14): 7.8 (2.75) | symptom score, Fitzmaurice mixed effects model, B − A (placebo − camostat) (COVID-19 infection; day 14): 2.24 (2.97) | symptom severity score, ANCOVA linear mixed model, A: Camostat arm (COVID-19 infection; day 14): −23.26 (2.29) | symptom severity score, ANCOVA linear mixed model, B − A (placebo − camostat) (COVID-19 infection; day 14): 1.32 (3.16) | symptom severity score, Negative binomial model, A: Camostat arm (COVID-19 infection; day 14): 8.11 (2.11) | symptom severity score, Negative binomial model, B − A (COVID-19 infection; day 14): 1.03 (0.31) | symptom severity scores compared to placebo (COVID-19 infection; days 5 through 10, did not reach statistical significance): lower | adverse effects (COVID-19): adverse effects were not observed | effect on clinical severity (e.g. escalation to ICU admission) (COVID-19): did not have an observable effect
